Patent US10150728B2, “Alkylene derivatives” (Shionogi & Co., Ltd., priority 2013, dated 2018)

Each molecule was assayed against recombinant human ACC2 (Homo sapiens (Human), UniProt O00763) (assay: Measurement of inhibitory activity on human ACC2 (MALDI-TOF MS, acetyl CoA to malonyl CoA conversion)). Settings: Tables 155-159.
Assay type: biochemical
In short: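 His-tagged human ACC2 (residues 27–2458) from baculovirus-infected Sf-9 cells was preincubated 1 h in pH 7.4 HEPES-KOH buffer with MgCl2, 6-10 mM potassium citrate, glutathione and BSA. Substrate solution held 1 mM ATP, 0.8 mM acetyl CoA and 25-50 mM bicarbonate. After 1–3 h at room temperature, malonyl CoA/(malonyl+acetyl CoA) was read by negative-mode MALDI-TOF MS; citrate, bicarbonate and time varied by enzyme lot.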

recombinant human ACC2, sequence (O00763 27-2458): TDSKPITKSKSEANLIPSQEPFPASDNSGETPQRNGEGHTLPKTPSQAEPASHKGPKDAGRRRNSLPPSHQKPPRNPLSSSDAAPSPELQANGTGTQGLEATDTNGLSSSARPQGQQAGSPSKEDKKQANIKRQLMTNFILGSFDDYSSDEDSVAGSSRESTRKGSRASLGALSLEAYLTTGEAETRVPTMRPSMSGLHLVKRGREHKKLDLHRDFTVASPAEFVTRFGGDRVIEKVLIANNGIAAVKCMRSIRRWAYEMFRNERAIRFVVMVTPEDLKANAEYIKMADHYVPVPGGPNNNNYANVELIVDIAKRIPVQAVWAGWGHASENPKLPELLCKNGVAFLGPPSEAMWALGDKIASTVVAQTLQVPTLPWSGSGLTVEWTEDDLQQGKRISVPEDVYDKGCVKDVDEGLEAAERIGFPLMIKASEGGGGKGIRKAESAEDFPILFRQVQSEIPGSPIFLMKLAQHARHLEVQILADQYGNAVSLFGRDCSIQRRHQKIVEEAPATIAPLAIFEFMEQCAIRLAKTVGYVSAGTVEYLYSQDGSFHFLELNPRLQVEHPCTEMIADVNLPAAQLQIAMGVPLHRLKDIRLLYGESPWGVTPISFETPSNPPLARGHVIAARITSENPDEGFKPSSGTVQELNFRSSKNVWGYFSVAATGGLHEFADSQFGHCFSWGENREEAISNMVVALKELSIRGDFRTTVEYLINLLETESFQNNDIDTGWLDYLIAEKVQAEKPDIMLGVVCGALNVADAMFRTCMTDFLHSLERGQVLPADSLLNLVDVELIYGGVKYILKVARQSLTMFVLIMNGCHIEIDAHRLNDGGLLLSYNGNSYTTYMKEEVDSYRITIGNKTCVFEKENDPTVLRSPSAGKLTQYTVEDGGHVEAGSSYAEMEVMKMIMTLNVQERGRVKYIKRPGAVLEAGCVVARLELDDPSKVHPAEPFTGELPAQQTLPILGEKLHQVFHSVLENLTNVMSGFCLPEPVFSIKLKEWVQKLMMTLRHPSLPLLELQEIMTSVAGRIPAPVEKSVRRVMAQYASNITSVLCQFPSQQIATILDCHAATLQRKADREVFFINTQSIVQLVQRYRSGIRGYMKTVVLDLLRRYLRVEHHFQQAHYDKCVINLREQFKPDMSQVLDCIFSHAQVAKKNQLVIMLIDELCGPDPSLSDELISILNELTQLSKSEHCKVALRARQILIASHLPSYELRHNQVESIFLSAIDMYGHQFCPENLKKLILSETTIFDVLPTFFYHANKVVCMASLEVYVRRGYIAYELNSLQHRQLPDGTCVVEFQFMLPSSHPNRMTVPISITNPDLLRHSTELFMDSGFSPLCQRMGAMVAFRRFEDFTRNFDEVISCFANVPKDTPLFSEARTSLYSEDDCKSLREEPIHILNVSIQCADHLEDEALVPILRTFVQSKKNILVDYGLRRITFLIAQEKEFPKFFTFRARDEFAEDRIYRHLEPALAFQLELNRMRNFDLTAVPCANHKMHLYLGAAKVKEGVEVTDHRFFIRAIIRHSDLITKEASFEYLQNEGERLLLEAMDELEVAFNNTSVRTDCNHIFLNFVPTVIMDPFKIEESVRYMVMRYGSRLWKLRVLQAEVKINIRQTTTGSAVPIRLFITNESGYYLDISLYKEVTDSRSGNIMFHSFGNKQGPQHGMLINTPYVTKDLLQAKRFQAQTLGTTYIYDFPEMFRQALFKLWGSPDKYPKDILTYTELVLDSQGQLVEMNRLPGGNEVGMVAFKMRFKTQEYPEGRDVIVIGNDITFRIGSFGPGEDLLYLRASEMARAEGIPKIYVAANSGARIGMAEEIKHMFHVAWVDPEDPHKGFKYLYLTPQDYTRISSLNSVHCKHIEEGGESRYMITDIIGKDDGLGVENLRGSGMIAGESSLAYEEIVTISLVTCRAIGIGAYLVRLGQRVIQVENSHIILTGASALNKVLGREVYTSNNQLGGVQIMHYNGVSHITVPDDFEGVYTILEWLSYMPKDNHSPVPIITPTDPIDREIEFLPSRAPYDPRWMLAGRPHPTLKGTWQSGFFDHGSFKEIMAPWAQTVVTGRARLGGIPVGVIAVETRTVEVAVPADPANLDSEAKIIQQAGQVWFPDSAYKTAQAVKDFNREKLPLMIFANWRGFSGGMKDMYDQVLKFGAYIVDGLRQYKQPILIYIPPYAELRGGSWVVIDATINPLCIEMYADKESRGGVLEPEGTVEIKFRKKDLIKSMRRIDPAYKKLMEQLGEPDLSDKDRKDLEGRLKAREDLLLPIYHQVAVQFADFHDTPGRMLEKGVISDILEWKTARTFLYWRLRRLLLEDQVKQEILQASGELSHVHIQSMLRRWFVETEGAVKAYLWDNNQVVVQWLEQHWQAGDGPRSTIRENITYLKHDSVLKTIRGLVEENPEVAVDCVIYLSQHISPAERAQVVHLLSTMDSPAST

SMILES	IC50 [nM]
CC(=O)N[C@@H](C)CO[C@H]1C[C@H](COc2ccc3nc(N(C)CC#N)sc3n2)C1 [Compound I-282]	892
CC(=O)N[C@@H](C)CO[C@H]1C[C@H](COc2ccc3nc(O[C@@H]4CO[C@@H]5CCO[C@@H]54)sc3n2)C1 [Compound I-283]	984
CC(=O)N[C@@H](C)CO[C@H]1C[C@H](COc2ccc3nc(N4CC5(CCC5)C4)sc3n2)C1 [Compound I-284]	17
C[C@@H](CO[C@H]1CC[C@H](Oc2ncc3nc(OC4CC4)sc3c2F)CC1)NC(N)=O [Compound I-285]	38
CC(=O)N[C@@H](C)CO[C@H]1C[C@H](COc2ccc3nc(N4CC(F)(F)C4)sc3c2F)C1 [Compound I-286]	125
CC(=O)N[C@@H](C)CO[C@H]1C[C@H](COc2ccc3nc(N4CC[C@@H](F)C4)sc3n2)C1 [Compound I-287]	51
CC(=O)N[C@@H](C)CO[C@H]1C[C@H](COc2ccc3nc(N4CCC(C#N)C4)sc3n2)C1 (stereo partly drawn) [Compound I-288]	759
CC(=O)N[C@@H](C)CO[C@H]1C[C@H](COc2ccc3nc(N4CC[C@H](F)C4)sc3n2)C1 [Compound I-289]	110
C[C@@H](CO[C@H]1CC[C@H](Oc2cc3sc(OCC4CC4(F)F)nc3cn2)CC1)NC(=O)CO (stereo partly drawn) [Compound I-290]	82
C[C@@H](CO[C@H]1CC[C@H](Oc2cc3sc(OCC4CC4(F)F)nc3cn2)CC1)NC(N)=O (stereo partly drawn) [Compound I-291]	32
CC(=O)N[C@@H](C)CO[C@H]1C[C@](C)(COc2ccc3nc(OC4CC4)sc3n2)C1 [Compound I-292]	52
CC(=O)N[C@@H](C)CO[C@H]1C[C@H](COc2ccc3nc(O[C@H]4C[C@H](O)C4)sc3n2)C1 [Compound I-293]	171
CC(=O)N[C@@H](C)CO[C@H]1C[C@H](COc2ccc3nc(O[C@H]4C[C@@H](O)C4)sc3n2)C1 [Compound I-294]	300
CC(=O)N[C@@H](C)CO[C@H]1C[C@H](COc2ccc3nc(O[C@H]4C[C@H](F)C4)sc3n2)C1 [Compound I-295]	12
CC(=O)N[C@@H](C)CO[C@H]1C[C@H](COc2ccc3nc(O[C@H]4C[C@@H](F)C4)sc3n2)C1 [Compound I-296]	6
CC(=O)N[C@@H](C)CO[C@H]1C[C@](F)(COc2ccc3nc(OCC(F)F)sc3n2)C1 [Compound I-297]	42
CC(=O)N[C@@H](C)CO[C@H]1C[C@](F)(COc2ccc3nc(OC4CC4)sc3n2)C1 [Compound I-298]	52
CC(=O)N[C@@H](C)CO[C@H]1C[C@](F)(COc2ccc3nc(OC(C)C)sc3n2)C1 [Compound I-299]	26
CC(=O)N[C@@H](C)CO[C@H]1C[C@H](COc2ccc3nc(OCC(C)(C)O)sc3n2)C1 [Compound I-300]	165
CC(=O)N[C@@H](C)CO[C@H]1C[C@H](COc2ccc3nc(OC4CC(C#N)C4)sc3n2)C1 (stereo partly drawn) [Compound I-301]	37

SMILES	IC50 [nM]
CC(=O)N[C@@H](C)CO[C@H]1C[C@H](COc2ccc3nc(OCC(C)(C)C#N)sc3n2)C1 [Compound I-302]	52
CC(=O)N[C@@H](C)CO[C@H]1C[C@H](COc2ccc3nc(Oc4ccc(F)nc4)sc3n2)C1 [Compound I-303]	68
CC(=O)N[C@@H](C)CO[C@H]1C[C@H](COc2ccc3nc(Oc4ccc(F)cn4)sc3n2)C1 [Compound I-304]	242
CC(=O)N[C@@H](C)CO[C@H]1C[C@H](COc2ccc3nc(Oc4ccc(F)cc4)sc3n2)C1 [Compound I-305]	22
CC(=O)N[C@@H](C)CO[C@H]1C[C@H](COc2ccc3nc(OC[C@@H](C)F)sc3n2)C1 [Compound I-306]	15
CC(=O)N[C@@H](C)CO[C@H]1C[C@H](COc2ccc3nc(OC4COC4)sc3n2)C1 [Compound I-307]	43
CC(=O)N[C@@H](C)CO[C@H]1C[C@H](COc2ccc3nc(OCC4CC4)sc3n2)C1 [Compound I-308]	6
CC(=O)N[C@@H](C)CO[C@H]1C[C@H](COc2nccc(-c3ncc(F)cn3)c2F)C1 [Compound I-311]	106
CC(=O)N[C@@H](C)CO[C@H]1C[C@H](COc2nccc(-c3ncc(OC(C)C)cn3)c2Cl)C1 [Compound I-312]	401
COc1cnc(-c2ccnc(OC[C@H]3C[C@H](OC[C@H](C)NC(C)=O)C3)c2Cl)nc1 [Compound I-321]	167
CC(=O)N[C@@H](C)CO[C@H]1C[C@H](COc2nccc(-c3ncc(C(F)(F)F)cn3)c2Cl)C1 [Compound I-322]	63
CC(=O)N[C@@H](C)CO[C@H]1C[C@H](COc2nccc(OCC(F)(F)F)c2Cl)C1 [Compound I-326]	280
CC(=O)N[C@@H](C)CO[C@H]1C[C@H](COc2nccc(N3CCC(F)CC3)c2Cl)C1 [Compound I-330]	105
CC(=O)N[C@@H](C)CO[C@H]1C[C@H](COc2nccc3c2OCC2CCCN32)C1 (stereo partly drawn) [Compound I-331]	470
CC(=O)N[C@@H](C)CO[C@H]1C[C@H](COc2nccc(N3C4CCC3CC4)c2Cl)C1 [Compound I-332]	56
CC(=O)N[C@@H](C)CO[C@H]1C[C@H](COc2nccc(-c3csc(C)n3)c2C)C1 [Compound I-333]	203
CC(=O)N[C@@H](C)CO[C@H]1C[C@H](COc2nccc(N3CC4(CCC4)C3)c2Cl)C1 [Compound I-337]	7
CC(=O)N[C@@H](C)CO[C@H]1C[C@H](COc2ncnc(N3CCCC3)c2Cl)C1 [Compound I-338]	26
COc1ccc(COc2ncnc(OC[C@H]3C[C@H](OC[C@H](C)NC(C)=O)C3)c2Cl)cn1 [Compound I-348]	57
CC(=O)N[C@@H](C)CO[C@H]1C[C@H](COc2ncnc(OCc3cccc(C(F)(F)F)c3)c2Cl)C1 [Compound I-350]	49

Second part, the molecule after the results:

IC50 [nM]	SMILES
24	CC(=O)N[C@@H](C)CO[C@H]1C[C@H](COc2nccc(-c3ccc(F)cc3)c2F)C1 [Compound I-309]
34	CC(=O)N[C@@H](C)CO[C@H]1C[C@H](COc2nccc(-c3ccc(F)cc3)c2Cl)C1 [Compound I-310]
72	CC(=O)N[C@@H](C)CO[C@H]1C[C@H](COc2nccc(-c3ccc(F)cc3)c2C)C1 [Compound I-313]
25	CC(=O)N[C@@H](C)CO[C@H]1C[C@H](COc2nccc(OCC3CC3)c2Cl)C1 [Compound I-314]
503	CC(=O)N[C@@H](C)CO[C@H]1C[C@H](COc2nccc(OCC(F)F)c2Cl)C1 [Compound I-315]
74	CC(=O)N[C@@H](C)CO[C@H]1C[C@H](COc2nccc(OCC3CC3(F)F)c2Cl)C1 (stereo partly drawn) [Compound I-316]
14	CC(=O)N[C@@H](C)CO[C@H]1C[C@H](COc2nccc(C3=CCCCC3)c2Cl)C1 [Compound I-317]
49	CC(=O)N[C@@H](C)CO[C@H]1C[C@H](COc2nccc3ccccc23)C1 [Compound I-318]
281	CC(=O)N[C@@H](C)CO[C@H]1C[C@H](COc2nccc(-c3ccc(F)cc3)c2C#N)C1 [Compound I-319]
67	CC(=O)N[C@@H](C)CO[C@H]1C[C@H](COc2nccc(-c3ccc(C(F)(F)F)cc3)c2Cl)C1 [Compound I-320]
345	CC(=O)N[C@@H](C)CO[C@H]1C[C@H](COc2nccc(N3CC(F)(F)C3)c2Cl)C1 [Compound I-323]
51	CC(=O)N[C@@H](C)CO[C@H]1C[C@H](COc2nccc(N3CCCCC3)c2Cl)C1 [Compound I-324]
37	CC(=O)N[C@@H](C)CO[C@H]1C[C@H](COc2nccc(N3CCCC3)c2Cl)C1 [Compound I-325]
80	CC(=O)N[C@@H](C)CO[C@H]1C[C@H](COc2nccc(-n3cc(C(F)(F)F)cn3)c2Cl)C1 [Compound I-327]
18	CC(=O)N[C@@H](C)CO[C@H]1C[C@H](COc2nccc3c2CCN3Cc2ccccc2)C1 [Compound I-328]
14	CC(=O)N[C@@H](C)CO[C@H]1C[C@H](COc2nccc3c2ccn3Cc2ccccc2)C1 [Compound I-329]
179	CC(=O)N[C@@H](C)CO[C@H]1C[C@H](COc2nccc3cc(F)ccc23)C1 [Compound I-334]
18	CC(=O)N[C@@H](C)CO[C@H]1C[C@H](COc2nccc(C3=CCCC3)c2Cl)C1 [Compound I-335]
25	CC(=O)N[C@@H](C)CO[C@H]1C[C@H](COc2nccc(C3=CCCC3)c2C)C1 [Compound I-336]
35	CC(=O)N[C@@H](C)CO[C@H]1C[C@H](COc2nccc(NC(=O)c3ccccc3)c2Cl)C1 [Compound I-339]
21	CC(=O)N[C@@H](C)CO[C@H]1C[C@H](COc2ncnc(NCc3cccc(Cl)c3)c2Cl)C1 [Compound I-340]
119	CC(=O)N[C@@H](C)CO[C@H]1C[C@H](COc2ncnc(OC(C)c3ccccc3)c2Cl)C1 (stereo partly drawn) [Compound I-341]
108	CC(=O)N[C@@H](C)CO[C@H]1C[C@H](COc2ncnc(NCc3cccc(C(F)(F)F)c3)c2Cl)C1 [Compound I-342]
118	CC(=O)N[C@@H](C)CO[C@H]1C[C@H](COc2ncnc(NCc3cccc(C#N)c3)c2Cl)C1 [Compound I-343]
13	CC(=O)N[C@@H](C)CO[C@H]1C[C@H](COc2ncnc(NCc3ccc(Cl)cc3)c2Cl)C1 [Compound I-344]
38	CC(=O)N[C@@H](C)CO[C@H]1C[C@H](COc2ncnc(OCCc3ccccc3)c2Cl)C1 [Compound I-345]
19	CC(=O)N[C@@H](C)CO[C@H]1C[C@H](COc2ncnc(OCc3cccc(C#N)c3)c2Cl)C1 [Compound I-346]
55	CC(=O)N[C@@H](C)CO[C@H]1C[C@H](COc2ncnc(OCc3ccc(C#N)cc3)c2Cl)C1 [Compound I-347]
39	CC(=O)N[C@@H](C)CO[C@H]1C[C@H](COc2ncnc(OCc3ccc(C(F)(F)F)cc3)c2Cl)C1 [Compound I-349]
